Source: article PMC8086025, “A benzopyran with antiarrhythmic activity is an inhibitor of Kir3.1-containing potassium channels” (The Journal of Biological Chemistry, 2021)
Entries after “also recorded” stand apart in the source; their conditions may differ. Like-named read-outs stand apart in the source and are kept apart here.

Columns and labels:
[1] = target: T1, Kir3.4/4(S143F) channel mutant (Homo sapiens, UniProt P48544, S143F); assay: TEVC in Xenopus oocytes, Kir3.4/4(S143F); format: cell-based; details: read-out: IC50, inhibition of Kir3.4/4(S143F)
T1 construct: expressed in transfected cells; host or cells: Xenopus laevis oocytes (cRNA injection)
T1 sequence (P48544 whole entry S143F): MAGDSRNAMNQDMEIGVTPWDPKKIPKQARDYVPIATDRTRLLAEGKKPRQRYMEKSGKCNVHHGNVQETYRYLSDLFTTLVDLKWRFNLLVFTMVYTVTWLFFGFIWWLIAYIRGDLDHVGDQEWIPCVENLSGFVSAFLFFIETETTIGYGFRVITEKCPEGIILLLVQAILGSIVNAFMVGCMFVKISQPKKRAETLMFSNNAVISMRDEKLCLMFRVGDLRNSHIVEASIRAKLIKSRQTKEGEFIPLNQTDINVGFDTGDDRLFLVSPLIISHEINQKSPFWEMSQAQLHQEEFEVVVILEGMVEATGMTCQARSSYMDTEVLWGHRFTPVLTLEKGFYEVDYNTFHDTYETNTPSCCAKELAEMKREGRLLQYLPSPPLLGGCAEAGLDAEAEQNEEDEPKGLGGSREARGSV
T1 sequence (P48544 whole entry, stated change not applied): as the sequence (P48544 whole entry S143F) above, with F143S counted along it

wild-type Kir3.4 channel = target: T2, wild-type Kir3.4 channel (Homo sapiens, UniProt P48544); assay: TEVC in Xenopus oocytes, wild-type Kir3.4; format: cell-based; details: 1 μM
T2 construct: expressed in transfected cells; host or cells: Xenopus laevis oocytes (cRNA injection)
T2 sequence (P48544 whole entry): as the sequence (P48544 whole entry S143F) above, with F143S counted along it
Experimental: X. laevis oocytes were isolated and microinjected as previously described ([6]). Human Kir3.1, mouse Kir3.2, and human Kir3.4 DNA constructs were used for electrophysiology experiments. All cRNA constructs were injected in the amount of 2 ng per oocyte. Injected oocytes were incubated for 2 to 3 days at 18 °C to allow for expression. Whole-cell oocyte currents were then measured using a GeneClamp 500 amplifier (Axon Instruments). Microelectrodes had resistances of 0.5 to 1 megohm using a 3M KCl solution in 1.4% agarose. Oocytes were perfused with a low K^+ (LK) solution ND96 (2 mM KCl, 96 mM NaCl, 1 mM MgCl2, 1.8 mM CaCl2, 5 mM HEPES-Na) to establish a baseline for the recordings. Basal current was measured in a high potassium (HK) solution ND96K (96 mM KCl, 10 mM HEPES-K, 1 mM MgCl2, 1.8 mM CaCl2). To block the current, the oocyte chamber was perfused with 4 mM BaCl2 in ND96K. Only the Barium-sensitive current was used for statistical analysis. To measure the inhibitory activity of the channels, 1 μM BP-G1 in ND96K (HK) was used. Typically, oocytes were held at 0 mV (EK) and the current was monitored constantly using a ramp protocol with a command potential from −80 to +80 mV. Current amplitude was measured at the end of a 1 s sweep. All currents were analyzed when they reached steady state. Error bars in the figures represent SD (N > 4).

NaV1.2 and NaVβ1 = target: T3, NaV1.2 and NaVβ1 (Rattus norvegicus, UniProt P04775); assay: NaV1.2 currents in Xenopus oocytes; format: cell-based
T3 construct: expressed in transfected cells; host or cells: Xenopus oocytes
T3 sequence (P04775 whole entry): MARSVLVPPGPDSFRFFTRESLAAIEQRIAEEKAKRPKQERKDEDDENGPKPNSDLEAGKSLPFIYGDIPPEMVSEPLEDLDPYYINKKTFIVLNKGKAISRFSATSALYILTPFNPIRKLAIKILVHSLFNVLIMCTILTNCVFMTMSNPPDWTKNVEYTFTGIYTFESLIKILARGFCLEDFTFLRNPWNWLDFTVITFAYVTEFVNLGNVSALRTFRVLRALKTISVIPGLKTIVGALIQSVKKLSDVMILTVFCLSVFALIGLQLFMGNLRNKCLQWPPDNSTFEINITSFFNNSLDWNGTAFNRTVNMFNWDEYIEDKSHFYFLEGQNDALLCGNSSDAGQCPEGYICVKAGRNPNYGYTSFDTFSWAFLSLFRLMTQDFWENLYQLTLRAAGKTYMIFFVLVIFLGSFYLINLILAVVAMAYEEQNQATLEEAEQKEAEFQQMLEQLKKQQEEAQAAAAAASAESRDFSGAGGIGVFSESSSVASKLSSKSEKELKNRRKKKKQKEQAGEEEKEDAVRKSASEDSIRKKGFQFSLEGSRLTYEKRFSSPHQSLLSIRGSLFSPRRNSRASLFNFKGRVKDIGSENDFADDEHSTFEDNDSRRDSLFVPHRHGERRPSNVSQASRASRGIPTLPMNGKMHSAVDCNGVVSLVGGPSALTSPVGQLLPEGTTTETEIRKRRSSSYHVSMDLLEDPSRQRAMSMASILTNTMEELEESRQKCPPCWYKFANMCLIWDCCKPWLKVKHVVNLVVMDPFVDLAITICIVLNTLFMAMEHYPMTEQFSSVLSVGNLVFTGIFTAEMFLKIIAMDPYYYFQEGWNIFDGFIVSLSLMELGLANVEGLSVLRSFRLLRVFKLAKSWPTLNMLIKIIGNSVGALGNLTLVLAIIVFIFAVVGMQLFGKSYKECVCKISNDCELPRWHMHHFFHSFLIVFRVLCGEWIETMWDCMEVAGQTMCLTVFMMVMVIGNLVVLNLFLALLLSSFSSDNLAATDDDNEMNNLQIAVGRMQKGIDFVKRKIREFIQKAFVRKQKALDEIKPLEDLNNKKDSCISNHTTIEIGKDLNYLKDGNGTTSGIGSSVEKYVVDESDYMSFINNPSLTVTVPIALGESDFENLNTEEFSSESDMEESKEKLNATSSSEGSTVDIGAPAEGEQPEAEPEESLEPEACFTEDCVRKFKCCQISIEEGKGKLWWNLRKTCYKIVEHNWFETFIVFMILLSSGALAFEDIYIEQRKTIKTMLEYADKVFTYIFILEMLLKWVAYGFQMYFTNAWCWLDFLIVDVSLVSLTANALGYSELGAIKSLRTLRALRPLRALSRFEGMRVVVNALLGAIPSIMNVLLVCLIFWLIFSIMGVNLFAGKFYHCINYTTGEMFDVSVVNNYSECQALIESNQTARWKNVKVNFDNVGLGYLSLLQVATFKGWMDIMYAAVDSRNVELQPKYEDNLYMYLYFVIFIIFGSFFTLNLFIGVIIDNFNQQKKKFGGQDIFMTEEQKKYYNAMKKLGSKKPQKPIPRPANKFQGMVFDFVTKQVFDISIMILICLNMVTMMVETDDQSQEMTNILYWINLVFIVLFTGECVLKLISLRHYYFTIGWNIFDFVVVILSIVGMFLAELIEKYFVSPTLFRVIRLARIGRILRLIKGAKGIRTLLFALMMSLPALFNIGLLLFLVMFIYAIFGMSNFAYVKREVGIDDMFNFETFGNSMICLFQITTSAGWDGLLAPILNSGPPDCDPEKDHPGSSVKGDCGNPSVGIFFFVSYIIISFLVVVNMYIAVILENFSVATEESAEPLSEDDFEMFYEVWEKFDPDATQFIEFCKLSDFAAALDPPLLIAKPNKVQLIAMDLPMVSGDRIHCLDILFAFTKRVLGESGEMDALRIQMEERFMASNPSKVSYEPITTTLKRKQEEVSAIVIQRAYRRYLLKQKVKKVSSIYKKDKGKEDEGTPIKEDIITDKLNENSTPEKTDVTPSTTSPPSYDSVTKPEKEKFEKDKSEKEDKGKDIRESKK
T3 sequence (Q00954 19-218 partner): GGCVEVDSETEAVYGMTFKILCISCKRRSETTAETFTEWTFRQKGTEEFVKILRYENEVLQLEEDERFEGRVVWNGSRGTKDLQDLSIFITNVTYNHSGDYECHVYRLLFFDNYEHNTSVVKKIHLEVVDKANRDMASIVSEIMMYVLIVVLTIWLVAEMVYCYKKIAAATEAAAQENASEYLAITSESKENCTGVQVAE

[2] = Plasma protein binding, human; format: in vitro ADME; details: read-out: Human PPB (converted)
Nav = assay: Radioligand binding, rat cerebral cortex

Cc1cc(CO)nc2cc3c(cc12)OC(C)(C)[C@H](O)[C@H]3NCCc1ccccc1 [BP-G1, (3R,4S)-7-(hydroxymethyl)-2,2,9-trimethyl-4-(2-phenylethylamino)-3,4-dihydropyrano[2,3-g]quinolin-3-ol]
IC50 [1]: 62.1 nM
inhibition of wild-type Kir3.4 (wild-type Kir3.4 channel): did not inhibit; also recorded: showed no block
block of TTX-sensitive NaV1.2 currents (NaV1.2 and NaVβ1; 10 µM): did not block
average NaV1.2 current (NaV1.2 and NaVβ1; 10 μM BP-G1, vehicle -2.16 ± 0.36 μA, mean ± SD, N=10): -2.17 μA
IC50, NaV1.2 (NaV1.2 and NaVβ1; Table S1): > 10000 nM
fraction unbound [2]: 0.03
% Specific Binding at 10 µM (Nav): 65.1%
% Specific Binding at 10 µM (Nav; listed as Benzopyran-G1): 65.100%
